Laboratory results taken from paper PMC11851430, “Workflow for E3 Ligase Ligand Validation for PROTAC Development” (ACS Chemical Biology, 2025).

Tests used:
[1] = test system: kinase protein levels in Jurkat cells; experiment: TMT-labeled quantitative proteomics; type: cell-based, human; conditions: Jurkat, 1 µM, set1.2
Description: cultured in RPMI (Thermo: 11875093) supplemented as mentioned above. Cells were seeded in 6 well plates (Greiner: 657160) at a cell density of 1·10 6 cells/well and left at 37 °C and 5% […]
(§1) 50 µl of SDS Lysis Buffer (2% SDS, 50 mM TRIS pH 8.5, 10 mM TCEP, 40 mM CAA) was added to each sample. Cells were transferred into low binding reaction tubes (Eppendorf:
0030108116) and samples were boiled for 15 minutes at 95 °C and sonicated for 2 minutes.
(§2) Methanol/Chloroform Precipitation. 200 µl of methanol and 50 µl of chloroform were added to each sample reaction tube and mixed via vortex. 150 µl of milliQ-H2O were added and samples were vortexed further. Samples were centrifuged for 5 minutes at 15000 g and the aqueous layer above the interphase was removed. 150 µl of methanol was added, samples were vortexed and centrifuged for 10 minutes at 15000 g to precipitate the pellet. The aforementioned wash procedure was repeated twice before transferring the pellet to a new low bind reaction tube in which it was allowed to dry for 5 minutes.
Dissolving the Protein Pellet and Protein Quantification. 50 µl of digestion buffer (8 M Urea, 50 mM TRIS pH 8) was added to each sample before vortexing and shaking at 750 rpm at room temperature for 10 minutes to solubilize the pellet. Protein quantification via PierceTM BCA Protein Assay Kit (Thermo: 23225) was carried out according to manufacturer’s protocol.
(§3) Protein Digestion. Samples were diluted 1:2 with 50 mM TRIS pH 8.5 to reach a final concentration of 4 M Urea. Lys-C (Promega: VA1170) was added at a 1:100 enzyme/substrate ratio. Samples were agitated at 550 rpm and 37 °C for 3 h. Samples were further diluted with 50 mM TRIS pH 8.5 to a final concentration of 1 M Urea and Trypsin (Promega: V5280) was added at a 1:100 enzyme/substrate ratio. Samples were agitated overnight at 550 rpm and 37 °C. The digestion was stopped the following day via addition of TFA to a final concentration […]
(§4) Solid Phase Extraction via C18 Cartridges. Sep-Pak C18 Cartridges (Waters: WAT054955) were used for solid phase extraction of digested peptides. For preconditioning of C18 cartridges, 1 mL of methanol was added to each column followed by 1 mL of solution B (0.1% formic acid, 80% acetonitrile) and 1 mL of solution A (0.1% formic acid, ddH2O) twice. Samples […]
(§5) were loaded to their respective columns and once samples had passed, columns were washed twice with solution A to remove unwanted components from the loading step. Elution of samples was carried out via introduction of 40% and 60% acetonitrile steps. Samples were dried and snap frozen in liquid nitrogen.
TMT-Labeling. Desalted peptides were dried and resuspended in TMT-labeling buffer (200 mM EPPS pH 8.2, 20% acetonitrile). 10 μg of peptides per condition were subjected to TMT labeling with 1:2.5 peptide TMT ratio (w/w) for 1 h at room temperature. The labeling reaction was quenched by addition of hydroxylamine to a final concentration of 0.5% and incubation at room temperature for 15 minutes. Successful TMT labeling was verified by mixing equimolar ratios of peptides and subjecting the mix to single shot LC-MS/MS analysis. For high pH reversed phase fractionation on a Dionex analytical HPLC, 50 µg of pooled and purified TMT labelled samples were resuspended in 10 mM ammonium-bicarbonate (ABC), 5% acetonitrile, […]
particle size; Phenomenex) using a multistep gradient from 100% solvent A (5% acetonitrile, 10 mM ABC in water) to 60% solvent B (90% acetonitrile, 10 mM ABC in water) over 70 minutes. Eluting peptides were collected every 45 seconds into a total of 96 fractions, which were cross-concatenated into 24 fractions and dried in a vacuum concentrator and resuspended in 3% acetonitrile with 0.1% TFA for LC-MS analysis.
Mass spectrometry data acquisition. Tryptic peptides were analyzed on an Orbitrap Lumos coupled to an easy nLC 1200 (ThermoFisher Scientific) using a 35 cm long, 75 µm ID fused-

[2] = biological target: T1, kinase protein levels in MCF-7 cells (Homo sapiens, UniProt A0A0B4J2F0); experiment: TMT-labeled quantitative proteomics; type: cell-based; conditions: protein PIGBOS1; MCF7; 1 µM; set1.1
T1 construct: endogenous in cells; host or cells: MCF-7
T1 sequence (A0A0B4J2F0 1-54): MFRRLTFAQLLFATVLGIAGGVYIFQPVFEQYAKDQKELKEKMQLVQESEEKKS
Description: as §1, §2
(§6) Dissolving the Protein Pellet and Protein Quantification. 50 µl of digestion buffer (8 M Urea, 50 mM TRIS pH 8) was added to each sample before vortexing and shaking at 750 rpm at room temperature for 10 minutes to solubilize the pellet. Protein quantification via PierceTM […]
as §3, §4, §5
(§7) TMT-Labeling. Desalted peptides were dried and resuspended in TMT-labeling buffer (200 mM EPPS pH 8.2, 20% acetonitrile). 10 μg of peptides per condition were subjected to TMT labeling with 1:2.5 peptide TMT ratio (w/w) for 1 h at room temperature. The labeling reaction was quenched by addition of hydroxylamine to a final concentration of 0.5% and incubation at room temperature for 15 minutes. Successful TMT labeling was verified by mixing equimolar ratios of peptides and subjecting the mix to single shot LC-MS/MS analysis. For high pH reversed phase fractionation on a Dionex analytical HPLC, 50 µg of pooled and purified TMT labelled samples were resuspended in 10 mM ammonium-bicarbonate (ABC), 5% acetonitrile, and separated on a 250 mm long C18 column (Aeris Peptide XB-C18, 4.6 mm ID, 2.6 µm particle size; Phenomenex) using a multistep gradient from 100% solvent A (5% acetonitrile, 10 mM ABC in water) to 60% solvent B (90% acetonitrile, 10 mM ABC in water) over 70 minutes. Eluting peptides were collected every 45 seconds into a total of 96 fractions, which were cross-concatenated into 24 fractions and dried in a vacuum concentrator and resuspended in 3% acetonitrile with 0.1% TFA for LC-MS analysis.
(§8) Mass spectrometry data acquisition. Tryptic peptides were analyzed on an Orbitrap Lumos coupled to an easy nLC 1200 (ThermoFisher Scientific) using a 35 cm long, 75 µm ID fused-silica column packed in house with 1.9 µm C18 particles (Reprosil pur, Dr. Maisch), and kept at 50 °C using an integrated column oven (Sonation). HPLC solvents consisted of 0.1% formic acid in water (buffer A) and 0.1% formic acid and 80% acetonitrile in water (buffer B). Assuming

[3] = test system: kinase protein levels in MCF-7 cells; experiment: TMT-labeled quantitative proteomics; type: cell-based, human; conditions: for log2FC (compound/DMSO): MCF7, 1 µM, set1.1
Description: as §1, §2, §6, §3, §4, §5, §7, §8

Jurkat cells = experiment: CellTiterGlo cell viability assay; type: cell-based, human; conditions: Homo sapiens, 24 h, mean of triplicates, ^b/^c values estimated, read-out: IC50±sd/μM (cell viability)
Description: The effects of the compounds on cell viability was determined using the CellTiter-Glo® 2.0 Cell Viability Assay (Promega: G9241) following manufacturer’s protocol. Ten µL of Jurkat cells at […]
After equilibration, PROTACs were titrated at various concentrations using an Echo acoustic […]
volume of CellTiter-Glo® 2.0 reagent (10 µL) was added to each well and cells were incubated for 10 minutes at room temperature. Filtered luminescence was measured on a PHERAstar plate reader (BMG Labtech) and data was evaluated using GraphPad Prism 9 software employing a normalized curve it with the following equation: Y=Bottom + (Top-Bottom)/(1+10(LogEC50-X) *HillSlope).
Sample preparation. Jurkat cells (ATCC © HTB-22) were cultured in RPMI (Thermo: […]

VHL = VHL (Homo sapiens, UniProt P40337); experiment: NanoBRET target engagement assay; conditions: permeabilized cells
VHL, sequence (P40337 whole entry): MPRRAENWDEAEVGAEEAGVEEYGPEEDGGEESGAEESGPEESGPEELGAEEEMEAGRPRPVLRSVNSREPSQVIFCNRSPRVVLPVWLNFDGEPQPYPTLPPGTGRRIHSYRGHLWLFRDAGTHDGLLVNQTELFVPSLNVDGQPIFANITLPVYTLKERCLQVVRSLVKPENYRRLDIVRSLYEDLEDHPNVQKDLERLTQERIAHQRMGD
Description: Compounds were pipetted at various concentrations using an Echo acoustic dispenser (Labcyte), immediately followed by Tracer K10 (Promega, Tracer DB ID: T000008) for AAK1 and Aurora A and VHL Tracer (Promega, Tracer DB ID: T000019) for VHL, at an optimum KD concentration chosen from TracerDB ( tracerdb.org), respectively.
To measure the BRET signal, the NanoBRET® NanoGlo Substrate (Promega:
N1573) was added as per the manufacturer’s protocol, and filtered luminescence was measured on a PHERAstar plate reader (BMG Labtech) equipped with a luminescence filter pair (450 nm BP filter (donor) and 610 nm LP filter (acceptor)). For NanoBRET® measurement in permeabilized cells, 25 nL of digitonin (0.05 μg/μL) was pipetted into each well using an
After incubation, the BRET signals were measured by a PHERAstar plate reader (BMG Labtech) following the same procedure as intact NanoBRET® measurement. Competitive displacement data were then normalized to controls and were plotted using GraphPad Prism 9 software employing a normalized 3-parameter curve fit with the following equation:

SMILES: Cc1ncsc1-c1ccc(CNC(=O)[C@@H]2C[C@@H](O)CN2C(=O)[C@@H](NCCOCCOCCOCCOCCC(=O)N2CCN(c3ccc(Nc4ncc(Cl)c(Nc5ccccc5C(N)=O)n4)cc3)CC2)C(C)(C)C)cc1 [6-c]
- log2FC (compound/DMSO) ([1]; protein NUDT4): 0.05309
- log2FC (compound/DMSO) ([1]; protein PIGBOS1): -0.1563
- log2FC (compound/DMSO) ([1]; protein TRAV8-2): -0.1064
- log2FC (compound/DMSO) ([1]; protein TRBV12-3;TRBV12-4): -0.03811
- P.Value (compound/DMSO) [2]: 0.867
- log2FC (compound/DMSO) [2]: -0.01736
- kinase degradation ([3]; MCF-7 cells, 1 μM, 6 h): did not result in significant degradation of any kinase
- log2FC (compound/DMSO) ([3]; protein NBPF19;NBPF15;NBPF8;NBPF10;NBPF26;NBPF14): -0.692
- log2FC (compound/DMSO) ([3]; protein NUDT4): -0.0761
- IC50 (Jurkat cells): 8.5 ± 0.8 µM
- VHL binding (VHL): did not bind strongly to VHL
